A short description of data set [1]: In vivo pharmacokinetic study, plasma LC-MS/MS. As to conditions: for Plasma exposure at 24 h: LLOQ 2.44 ng/ml; for bioavailability: PO 50 mg/kg vs IV 5 mg/kg; for half-life: read-out: Terminal T½ (converted); for AUC(0-t): read-out: AUC(0-8). Details: species or system Female BALB/c mice. As for the experimental part: Female BALB/c mice, being divided into two groups (n = 6 per group), received andrographolide via oral route (PO) as well as intravenous (IV) bolus dosing at 50 mg/kg (equivalent to 142.73 μmol/kg and dose volume, 10 ml/kg) and 5 mg/kg body weight (equivalent to 14.27 μmol/kg and dose volume, 5 ml/kg) respectively. The formulation was prepared in 10 % DMSO, 10 % Cremophor and 80 % 1/15 (M) Na2HPO4 with dose volume of 10 ml/kg and 5 ml/kg for oral and IV respectively. ~50 μl of blood samples were collected at each time points (0.25, 0.5, 1, 2, 4, 8 and 24 h for PO and 0.08, 0.25, 0.5, 1, 2, 4, 8 and 24 h for IV) into heparinized capillary tubes by piercing the saphenous vein using a disposable needle (26 G). Blood samples were centrifuged at 3000 rpm for 10 min at 4 °C. The resulting plasma samples were stored at –80 °C until bioanalysis.
Analysis of plasma samples were performed using a liquid chromatography tandem mass spectroscopy (API-4000, AB Sciex Instruments, Foster City, CA) attached with the ESI source. The LC system consisted of LC-20ADvp pump (Shimadzu, Kyoto, Japan) and CTC PAL (HTS) autosampler. Liquid chromatography was performed using a Luna C18 column (2 × 30 mm, 5 μ particle) of Phenomenex (Torrance, CA) and the mobile phase consisted of 2 mM ammonium acetate in water (A) and 80: 20 (v/v) MeCN: Solvent A (B). The gradient elution program was as follows: first 60 s only A for washing, then 60 s for gradient up to 100 % B and it was continued for next 60 s. Total run time was 3.5 min with a flow of 0.8 ml/min at room temperature. Samples were detected and quantified using Analyst 1.4.2. Internal standard used was diclofenac.
The concentrations of test samples were determined from the standard curve prepared by spiking 2 μl of working stock in 98 μl of blank plasma along with the quality control samples (low, mid and high). The linear equation of the standard curve was obtained by regressional analysis of the peak area ratio of analyte to internal standard versus nominal concentration with a weighting factor of 1/X2. The calibration curve was linear in the concentration range 2.44 (LLOQ) to 1250 ng/ml.

For data set [2], the system named is cytochrome c. Briefly: Western blot of cytosolic and mitochondrial fractions of MDA-MB-231 cells. It counts as cell-based, human. The note with it: 30 μM, 48 h. The procedure:
Cells were treated with andrographolide (30 μM) for 48 h and mitochondrial as well as cytosolic fractions were obtained with a mitochondria isolation kit (Pierce, Rockford, USA). The mitochondrial pellet was re-suspended in sample buffer for SDS-gel electrophoresis and analyzed by Western blot using cytochrome c antibody. COX IV and β-actin were used as loading controls for the mitochondrial fraction and cytosolic fraction respectively. Cytosolic fractions were also Western blotted for studying cytochrome c expression.
Cells from control regime and andrographolide treatment (30 μM, 48 h) were used for Western blot. After centrifugation, cell pellets were lysed in RIPA buffer containing protease and phosphatase inhibitors (Roche, Germany). Each cell lysate was used for protein assay with Bio-Rad protein assay kit (Bio-Rad, USA). A protein sample of 50 μg was electrophoresed in a 12 % SDS-PAGE. Proteins were electro-transferred from the gel onto a nitrocellulose membrane (Amersham Biosciences, UK). […] The protein bands were visualized by incubating the membrane with diaminobenzidine/hydrogen peroxide (Sigma-Aldrich) for color reaction. β-Actin and COX IV were also detected as loading controls.

Data set [3] deals with caspase-3. Briefly: Caspase activity assay (fluorometric, DEVD-AFC) in MDA-MB-231 cells. As to conditions: 0-60 μM, 24 h. It counts as cell-based, human. As for the experimental part:
MDA-MB-231 cells (1 × 10^5 cells per ml) were incubated with different concentrations of andrographolide (0, 15, 30, 45 and 60 μM) for 24 h and then centrifuged to detect caspase-3 and caspase-9 activation using caspase fluoremetric protease assay kit following manufacturer’s instructions. Briefly, cells were lysed in RIPA buffer supplemented with protease inhibitor cocktail and 10 μl lysate were diluted with 10 μl substrate buffer (1:1) containing 100 μM each of fluorogenic substrate, DEVD-AFC and LEHD-AFC for caspase-3 and caspase-9 respectively, and was then incubated for 90 min at 37 °C. Reactions were stopped using 0.2 mM sodium phosphate buffer (pH 7.5) and fluorescence was quantified by a spectrofluorometer (excitation, 405 nm; emission, 505 nm). Experiment was also performed using MCF-7 cells.

Data set [4] concerns MDA-MB-231. The data set is described as follows: Cellular ROS level (DCF-DA). The note with it: 15, 30, 45 and 60 μM, 12-48 h. In kind it is cell-based, human. The procedure:
To estimate intracellular ROS level, MDA-MB-231 (2 × 10^4 cells per well) were treated with andrographolide (15, 30, 45 and 60 μM) for 12–48 h and were harvested by centrifugation for the assay. The cell suspension (200 μl, containing 1 × 10^5 cells per ml) was mixed to PBS (800 μl) and 10 μM 2ʹ, 7ʹ-dichlorofluorescein diacetate (DCF-DA) and kept at 37 °C for 30 min in the dark. 25 μM H2O2 was used for positive control. The intracellular ROS level was measured by determining the production of H2O2 using a spectrofluorometer (excitation, 488 nm; emission, 515 nm). Another set of experiment was similarly performed where MDA-MB-231 cells were pre-treated with 3 mM NAC for 1 h followed by without or with andrographolide (30 μM) treatment. Same experiment was also performed using MCF-7 cells.

Setting [5] is: female, BALB/c, mouse, plasma, iv, 5 mg/kg, IV at 5 mg/kg, female BALB/c mice.
[6] abbreviates: female, BALB/c, mouse, plasma, po, 50 mg/kg, PO at 50 mg/kg, female BALB/c mice.
Setting [7] is: mouse, plasma, IV at 5 mg/kg, female BALB/c mice.
[8] abbreviates: mouse, plasma, PO at 50 mg/kg, female BALB/c mice.

Like-named read-outs stand apart in the source and are kept apart here.

In the case of `C=C1CC[C@@H]2[C@](C)(CO)[C@H](O)CC[C@@]2(C)[C@@H]1C/C=C1/C(=O)OC[C@H]1O` [andrographolide], the “Plasma exposure at 24 h” value in data set [1] (IV arm, 5 mg/kg) is recorded as “below lower limit of quantitation”. Also, the bioavailability (usually dose-corrected exposure relative to a reference, in per cent) in data set [1] (female BALB/c mice) came out at 9.27 ± 1.69%. The “Plasma exposure at 24 h” value in data set [1] (PO arm, 50 mg/kg) was “below lower limit of quantitation”. In data set [1] (PO at 50 mg/kg, female BALB/c mice), the CL is 1045 ± 201.7 mL/min/kg. Besides, in data set [1] (setting [5]), the total exposure AUC(0-inf) (usually total exposure, with the tail of the curve extrapolated) was 2.51 ± 0.56 µM·h; the clearance – broadly, a measure of how efficiently the substance is removed, as volume per time – was 91.8 mL/min/kg; the half-life is 1.86 ± 0.21 h. Besides, the bioavailability in data set [1] (female, BALB/c, mouse, plasma, oral, 50 mg/kg, female BALB/c mice, read-out: Bioavailability) was less than 10%. In data set [1] (setting [6]), the AUC(0-inf) was 2.33 ± 0.42 µM·h and the half-life was 3.3 ± 0.35 h. Further, in data set [1] (setting [7]), the C0 stood at 14.6 ± 4.04 µM and the AUC(0-t) turned out to be 1.96 ± 0.38 µM·h. Also, in data set [1] (setting [8]), the peak level (Cmax) was 0.73 ± 0.17 µM; the time to peak (Tmax) – broadly, the time from dosing to the highest level – came out at 0.42 ± 0.14 h; the AUC(0-t) turned out to be 1.92 ± 0.36 µM·h. The “cytosolic cytochrome c expression, increase” value in data set [2] (cytosolic fraction) stood at 7.13 ± 1.17 fold. For the same molecule, the “cytochrome c in the mitochondrial fraction, decrease” value in data set [2] (mitochondrial fraction) amounted to 1.92 ± 0.05 fold. Besides, the “activation of caspase-3” value in data set [3] was “gradual dose-dependent activation”. The “ROS generation (DCF fluorescence)” value in data set [4] is “increasing ROS generation with longer exposure and elevated dose”.

The record behind these values is publication PMC4833932, “Cytotoxicity and cell cycle arrest induced by andrographolide lead to programmed cell death of MDA-MB-231 breast cancer cell line” (Journal of Biomedical Science, 2016).
